Data reported in ChEMBL document CHEMBL3046495, “CoMFA, ADVANCE CoMFA AND CoMSIA STUDIES ON THE OXADIAZOLE SUBSTITUTED -ISOPROPOXY PHENYLPROPIONIC ACIDS FOR PPAR AGONISTIC ACTIVITY” (Med Chem Res, 2004).

Target: T1, Peroxisome proliferator-activated receptor alpha (Homo sapiens, UniProt Q07869)
T1 sequence (Q07869 whole entry): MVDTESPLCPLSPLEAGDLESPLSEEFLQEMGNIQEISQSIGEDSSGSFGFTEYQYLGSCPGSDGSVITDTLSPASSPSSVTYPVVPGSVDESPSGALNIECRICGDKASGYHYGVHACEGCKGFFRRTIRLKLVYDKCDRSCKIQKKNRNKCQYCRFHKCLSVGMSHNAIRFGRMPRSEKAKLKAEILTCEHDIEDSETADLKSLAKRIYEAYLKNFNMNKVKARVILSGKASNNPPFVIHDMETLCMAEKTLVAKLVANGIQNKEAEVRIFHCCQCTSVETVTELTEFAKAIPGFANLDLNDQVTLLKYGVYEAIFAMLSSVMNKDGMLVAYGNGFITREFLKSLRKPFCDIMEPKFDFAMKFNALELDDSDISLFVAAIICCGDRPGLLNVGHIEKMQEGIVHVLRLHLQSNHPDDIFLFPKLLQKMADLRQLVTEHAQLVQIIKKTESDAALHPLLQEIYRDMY
Test: Agonist activity at PPARalpha (unknown origin)

Row | EC50 | Compound
1 | 0.04 µM | CC(C)Cc1ccc(-c2nc(COc3ccc(CC(OC(C)C)C(=O)O)cc3)no2)cc1 (configuration not stated)
2 | 0.24 µM | CC(C)OC(Cc1ccc(OCCc2noc(C3CCCCC3)n2)cc1)C(=O)O (configuration not stated)
